# Laboratory results: PMC6900016, “Synthesis of Indomorphan Pseudo‐Natural Product Inhibitors of Glucose Transporters GLUT‐1 and ‐3” (Angewandte Chemie (International Ed. in English), 2019)
# Test system: HCT116
# Assay: cells
# Design: 2-deoxyglucose uptake inhibition, semi-automated resazurin/diaphorase fluorescence read-out of 2DG6P
# Settings: Homo sapiens, HCT-116, 0.5 h; 2DG uptake
# Procedure: Resazurin-based 2DG uptake assay (semi-automated high throughput) All buffers, reagents and steps were identical with those described for the manual screening Washing and [compound left out] addition steps were done using an automated cell washer or a multidrop device, respectively. Screening was performed in a 384-well plates. 15,000 HCT116 cells/well seeded into 384-well black-walled, clear bottomed plates (CellBIND, Corning) and incubated overnight. Compounds were added at 30 µM (final concentration for screening or serial dilutions staring from 30 µM for IC50 determinations) from DMSO stocks using the acoustic nanoliter dispenser ECHO 520. Fluorescence intensity was read from the bottom with a SpectraMax Paradigm Multi-Mode Microplate Reader (Molecular devices) using SUPPORTING INFORMATION 259 control (which was set to 100 %) and cells without 2DG (set to 0 %) using Graph Pad Prism 5 or 6 software and IC50 values were determined using a four-parameter fit. The observed difference in the obtained IC50 values for Glupin in the automated screening vs. manually performed assay is most likely attributed to the minituarization that is required for high-troughput screening and usually requires different plate format (384 vs. 96-well plates) and different cell number. In this case, the automated assay was performed in 384-well plates (vs. 96-well plates for the manual assay) with 15,000 cells per well (vs. 40,000 cells per well in the 96-well plates). For kinetic measurements, 15,000 cells were seeded into black CellBIND 384-well plates (Corning) and allowed to attach overnight. Then, the plates were washed 3X with KRB buffer containing 0.1%BSA and treated with different concentrations of 2DG (0-60mM) and Glupin (0-1µM) for 30s to 30min. The uptake was determined using the resazurin/diaphorase system as described above. 2DG uptake was stopped by aspirating the 2DG solution followed by quick wash with ice-cold KRB buffer (0.1 % BSA). Km and Vmax were determined by fitting the data according to Michaelis-Menten using non-linear fitting. The glucose uptake assay monitored the inhibition of 2‐deoxyglucose (2DG) uptake as described by Yamamoto et al.25 Briefly, 2DG uptake is determined by quantification of the 2DG‐6‐phosphate (2DG6P) that accumulates inside the cells by using the diaphorase‐resazurin/‐resorufin system (see Figure S7 a).
row,SMILES,IC50 [nM]
1,"CCOC(=O)Cn1c2c(c3cc(OC)ccc31)CC1CC2C(OC)CN1C(=O)c1cccnc1SC (racemic) [5aa, (±)-Ethyl 2-(5,10-dimethoxy-3-(2-(methylthio)nicotinoyl)-1,2,3,4,5,6-hexahydro-7H-2,6-methanoazocino[5,4-b]indol-7-yl)acetate]",4220 ± 3460
2,"CCOC(=O)Cn1c2c(c3cc(C(=O)OCC)ccc31)CC1CC2C(OC)CN1C(=O)c1cccnc1SC (stereo not shown) [5i, Ethyl 7-(2-ethoxy-2-oxoethyl)-5-methoxy-3-(2-(methylthio)nicotinoyl)-2,3,4,5,6,7-hexahydro-1H-2,6-methanoazocino[5,4-b]indole-10-carboxylate]",> 30000
3,CCOC(=O)Cn1c2c(c3ccccc31)CC1CC2C(OC)CN1C(=O)c1cnccn1 (stereo not shown) [5aw],2000 ± 400
4,"CCOC(=O)CCn1c2c(c3ccccc31)CC1CC2C(OC)CN1C(=O)c1cccnc1SC (racemic) [5q, (±)-ethyl 3-(5-methoxy-3-(2-(methylthio)nicotinoyl)-3,4,5,6-tetrahydro-1H-2,6-methanoazocino[5,4-b]indol-7(2H)-yl)propanoate]",8400 ± 3600
5,CCOC(=O)Cn1c2c(c3ccccc31)CC1CC2C(OC)CN1C(=O)c1ccco1 (stereo not shown) [5s],3400 ± 300
6,"CCOC(=O)Cn1c2c(c3ccccc31)CC1CC2C(OC)CN1C(=O)c1cccnc1C(F)(F)F (racemic) [5w, (±)-Ethyl 2-(5-methoxy-3-(2-(trifluoromethyl)nicotinoyl)-1,2,3,4,5,6-hexahydro-7H-2,6-methanoazocino[5,4-b]indol-7-yl)acetate]",120 ± 30
7,"CCOC(=O)Cn1c2c(c3ccccc31)CC1CC2C(OC)CN1C(=O)c1ccncc1 (racemic) [5ao, (±)-Ethyl 2-(3-isonicotinoyl-5-methoxy-1,2,3,4,5,6-hexahydro-7H-2,6-methanoazocino[5,4-b]indol-7-yl)acetate]",13000 ± 3000
8,"CCOC(=O)Cn1c2c(c3cc(Cl)ccc31)CC1CC2C(OC)CN1C(=O)c1cccnc1SC (racemic) [5g, (±)-Ethyl 2-(10-chloro-5-methoxy-3-(2-(methylthio)nicotinoyl)-1,2,3,4,5,6-hexahydro-7H-2,6-methanoazocino[5,4-b]indol-7-yl)acetate]",1400 ± 200
9,CNC(=O)Cn1c2c(c3ccccc31)CC1CC2C(OC)CN1C(=O)c1cnccn1 (stereo not shown) [5av],> 30000
10,"CCOC(=O)Cn1c2c(c3ccccc31)CC1CC2C(OC)CN1C(=O)c1cccnc1NC(=O)C(C)(C)C (racemic) [5am, (±)-Ethyl 2-(5-methoxy-3-(2-pivalamidonicotinoyl)-1,2,3,4,5,6-hexahydro-7H-2,6-methanoazocino[5,4-b]indol-7-yl)acetate]",> 30000
11,"CCCOC(=O)Cn1c2c(c3ccccc31)CC1CC2C(OC)CN1C(=O)c1cccnc1SC (racemic) [5l, (±)-Propyl 2-(-5-methoxy-3-(2-(methylthio)nicotinoyl)-3,4,5,6-tetrahydro-1H-2,6-methanoazocino[5,4-b]indol-7(2H)-yl)acetate]",93 ± 35
12,"CCOC(=O)Cn1c2c(c3ccccc31)CC1CC2C(OC)CN1C(=O)c1cccnc1Cl (racemic) [5af, (±)-Ethyl 2-(3-(2-chloronicotinoyl)-5-methoxy-1,2,3,4,5,6-hexahydro-7H-2,6-methanoazocino[5,4-b]indol-7-yl)acetate]",93 ± 41
13,"CCOC(=O)Cn1c2c(c3ccccc31)CC1CC2C(OC)CN1C(=O)c1cccnc1S(C)(=O)=O (racemic) [5ag, (±)-Ethyl 2-(5-methoxy-3-(2-(methylsulfonyl)nicotinoyl)-1,2,3,4,5,6-hexahydro-7H-2,6-methanoazocino[5,4-b]indol-7-yl)acetate]",1700 ± 700
14,"COC(=O)Cn1c2c(c3ccccc31)CC1CC2C(OC)CN1C(=O)c1cccnc1SC (racemic) [5ad, (±)-methyl 2-(5-methoxy-3-(2-(methylthio)nicotinoyl)-3,4,5,6-tetrahydro-1H-2,6-methanoazocino[5,4-b]indol-7(2H)-yl)acetate]",89 ± 32
15,"CCCSc1ncccc1C(=O)N1CC(OC)C2CC1Cc1c2n(CC(=O)OCC)c2ccccc12 (racemic) [5ai, (±)-Ethyl 2-(5-methoxy-3-(2-(propylthio)nicotinoyl)-1,2,3,4,5,6-hexahydro-7H-2,6-methanoazocino[5,4-b]indol-7-yl)acetate]",190 ± 120
16,CNC(=O)Cn1c2c(c3ccccc31)CC1CC2C(OC)CN1C(=O)c1cccnc1SC (stereo not shown) [5m],1450 ± 600
17,CCOC(=O)Cn1c2c(c3ccccc31)CC1CC2C(OC)CN1C(=O)N1CCOCC1 (stereo not shown) [5r],3160
18,CNC(=O)Cn1c2c(c3ccccc31)CC1CC2C(OC)CN1C(=O)Nc1cccc(C(F)(F)F)c1 (stereo not shown) [5az],> 30000
19,CCOC(=O)Cn1c2c(c3ccccc31)CC1CC2C(OC)CN1C(=O)c1cccnc1SC (racemic) [(±)-Glupin],55 ± 17
20,"CCOC(=O)Cn1c2c(c3cccc(Cl)c31)CC1CC2C(OC)CN1C(=O)c1cccnc1SC (racemic) [5h, (±)-Ethyl 2-(8-chloro-5-methoxy-3-(2-(methylthio)nicotinoyl)-1,2,3,4,5,6-hexahydro-7H-2,6-methanoazocino[5,4-b]indol-7-yl)acetate]",210 ± 90
21,"CCOC(=O)Cn1c2c(c3ccccc31)CC1CC2C(OC)CN1C(=O)c1cccnc1Sc1ccccc1 (racemic) [5ah, (±)-Ethyl 2-(5-methoxy-3-(2-(phenylthio)nicotinoyl)-1,2,3,4,5,6-hexahydro-7H-2,6-methanoazocino[5,4-b]indol-7-yl)acetate]",140 ± 70
22,"COC1CN(C(=O)c2cccnc2SC)C2Cc3c(n(CC(=O)O)c4ccccc34)C1C2 (racemic) [5n, (±)-2-(5-methoxy-3-(2-(methylthio)nicotinoyl)-1,2,3,4,5,6-hexahydro-7H-2,6-methanoazocino[5,4-b]indol-7-yl)acetic acid]",10000 ± 4000
